Reference: patent publication EP0031883A1, “Antimicrobial agent containing hydroxy butylimidazole derivatives” (BAYER AG, priority 1979, dated 1981)

Tested on: Candida
Assay: Antimicrobial in-vivo activity (oral) in mouse candidosis
Design: species or system Mäuse
Conditions: SPF-CF1 mice infected i.v. with 1 - 2 x 10^6 Candida cells; 50 - 100 mg/kg oral, one hour before and seven hours after infection; untreated controls about 5 % survival on day 5
Protocol: Mäuze vom Typ SPF-CF1 wurden intravenös mit 1 - 2 x 10^6 logaritmisch wachsenden Candida-Zellen, die in physiologischer Kochsalzlösung suspendiert waren, infiziert. Eine Stunde vor und sieben Stunden nach der Infektion werden die Tiere mit jeweils 50 - 100 mg/kg Körpergewicht der Präparate oral behandelt.
Urbehandelte Tiere starben 3 bis 6 Tage post infektionen. Die Überlebensrate am 5. Tag post infektionen betrug bei unbehandelten Kontrolltieren etwa 5 %.

Row | Compound | Wirkung
1 | Clc1ccc(COC(Cn2ccnc2)c2ccc(Cl)cc2Cl)c(Cl)c1 (stereo not drawn) [Miconazol®, 1-[2,4-Dichlor-β-(2,4-dichlorbenzyloxy)-phenethyl]-imidazolnatrium] | keine Wirkung
2 | CC(C)(C)C(O)(Cn1ccnc1)c1ccc(-c2ccc(Cl)cc2)cc1 (centres unmarked) [Verbindung 2, 1-(4-p-Chlorbiphenylyl)-1-(tert.-butyl)-2-(imidazol-1-yl)-ethan-1-ol] | sehr gute Wirkung
